Reference: patent publication US3988308A, “(Tyr^3, Tyr^14)-SRIF and intermediates” (American Home Products Corporation, priority 1974, dated 1976)
No end group written: not given here.

Tests used:
[1] = test system: growth hormone (GH); settings: background; Brazeau et al., Science 179 (1973); U.S. Pat. No. 3,842,066; cited from earlier work
[2] = test system: growth hormone; experiment: in vivo activity: plasma growth hormone by radioimmunoassay in nembutal-treated rats; settings: 500 μg in PEG 400/water (1 ml) injected; rats 200-240 g; nembutal 50 mg/kg i.p. at 1 h 40 min; killed 20 min later; 19 treated rats; control average 117.9 ± 13.6
Experimental: (§1) The growth hormone inhibiting activity of the compound of Example 3 was determined by radioimmunoassay in a rat pituitary cell culture system as described by Vale et al, Endocrinology 91, pp 562 (1972) and Grant et al, Biochemical and Biophysical Research Communications 51, pp 100-106 (1973). The compound of Example 3 was tested at 10 ng/ml, 100 ng/ml and 1000ng/ml and was active at these concentrations in inhibiting growth hormone release. The in vivo activity of the compound of Example 3 was determined by dissolving 500 μg of this compound in a mixture of polyethylene glycol (PEG 400) and water (1 ml) and the mixture was injected in rats weighing 200-240 g. Control rats were injected with 80% PEG 400. One hour and forty minutes later the rats were injected i.p. with nembutal at 50 mg/kg. Twenty minutes after the nembutal injection the rats were killed and their blood plasmas were assayed for growth hormone by radioimmunoassay.
The average of 19 treated rats was 80.1 ± 9.0 × 10^-^9 g GH/ml and the average of 11 control rats was 117.9 ± 13.6 × 10^^-9 g GH/ml.

[3] = test system: growth hormone release in rat pituitary cell culture; experiment: growth hormone inhibiting activity by radioimmunoassay in a rat pituitary cell culture system; format: cell-based; settings: tested at 10 ng/ml, 100 ng/ml and 1000ng/ml
Experimental: as §1

In the case of “H-Ala-Gly-Cys-Lys-Asn-Phe-Phe-Trp-Lys-Thr-Phe-Thr-Ser-Cys-OH (H-AGCKNFFWKTFTSC-OH; ends and bridges not checked) [linear form of somatostatin, synthesized by solid phase methodology]”, the “inhibition of secretion/release of growth hormone (somatotropin)” value [1] is listed as “same biological activity as the somatostatin obtained from a natural source”.
For “(Ala^3,Ala^14)-SRIF: somatostatin analog described in U.S. Pat. No. 3,842,066 (AGAKNFFWKTFTSA; Somatostatin-14; UniProt P61278 103-116, looked up, variant C3A C14A)”, the “inhibition of secretion/release of growth hormone (somatotropin)” value [1] is listed as “inhibiting the release of growth hormone”.
For “AGYKNFFWKTFTSY [Example 3, L-alanylglycyl-L-tyrosyl-L-lysyl-L-asparaginyl-L-phenylalanyl-L-phenylalanyl-L-tryptophyl-L-lysyl-L-threonyl-L-phenylalanyl-L-threonyl-L-seryl-L-tyrosine]”, the “blood plasma growth hormone, average of treated rats” value [2] was 80.1 ± 9.0 × 10^-9 g GH/ml and the “inhibiting growth hormone release” value [3] was “active”.
For C[C@H](N)C(=O)NCC(=O)N[C@H]1CSSC[C@@H](C(=O)O)NC(=O)[C@H](CO)NC(=O)[C@H]([C@@H](C)O)NC(=O)[C@H](Cc2ccccc2)NC(=O)[C@H]([C@@H](C)O)NC(=O)[C@H](CCCCN)NC(=O)[C@H](Cc2c[nH]c3ccccc23)NC(=O)[C@H](Cc2ccccc2)NC(=O)[C@H](Cc2ccccc2)NC(=O)[C@H](CC(N)=O)NC(=O)[C@H](CCCCN)NC1=O [Somatostatin], the “inhibition of secretion/release of growth hormone (somatotropin)” value [1] is given as “inhibit the secretion of the hormone somatotropin”.
